According to ChEMBL document CHEMBL4118148, “Design, synthesis and cardiovascular evaluation of some aminoisopropanoloxy derivatives of xanthone” (Bioorg Med Chem, 2018):
The source made the active and inactive calls. No cut-off for these calls is given here.

Key:
[1] = molecular target: T1, Adrenergic receptor alpha-1 (Rattus norvegicus) (UniProt P15823+P23944+P43140); assay: Antagonist activity at adrenergic alpha1 receptor in isolated Wistar rat aorta assessed as inhibition of […] contraction incubated for 20 mins
[2] = system: Rattus norvegicus; assay: Hypotensive activity in normotensive Wistar rat assessed as diastolic blood pressure at 5 mg/kg, iv measured after 5 mins (reference value: 86.5 to 119.4 mmHg); format: functional
[3] = system: Rattus norvegicus; assay: Hypotensive activity in normotensive Wistar rat assessed as diastolic blood pressure at 1 mg/kg, iv measured after 5 mins (reference value: 88.4 to 122.7 mmHg); format: functional
[4] = system: Rattus norvegicus; assay: Hypotensive activity in normotensive Wistar rat assessed as systolic blood pressure at 1 mg/kg, iv measured after 5 mins (reference value: 122.4 to 156.5 mmHg); format: functional
[5] = system: Rattus norvegicus; assay: Hypotensive activity in normotensive Wistar rat assessed as systolic blood pressure at 1 mg/kg, iv measured after 10 mins (reference value: 122.4 to 156.5 mmHg); format: functional
[6] = system: Rattus norvegicus; assay: Hypotensive activity in normotensive Wistar rat assessed as diastolic blood pressure at 1 mg/kg, iv measured after 10 mins (reference value: 88.4 to 122.7 mmHg); format: functional
[7] = system: Rattus norvegicus; assay: Hypotensive activity in normotensive Wistar rat assessed as systolic blood pressure at 5 mg/kg, iv measured after 20 mins (reference value: 119.2 to 148.6 mmHg); format: functional
[8] = system: Rattus norvegicus; assay: Hypotensive activity in normotensive Wistar rat assessed as systolic blood pressure at 1 mg/kg, iv measured after 20 mins (reference value: 122.4 to 156.5 mmHg); format: functional
[9] = system: Rattus norvegicus; assay: Hypotensive activity in normotensive Wistar rat assessed as diastolic blood pressure at 1 mg/kg, iv measured after 20 mins (reference value: 88.4 to 122.7 mmHg); format: functional
[10] = system: Rattus norvegicus; assay: Hypotensive activity in normotensive Wistar rat assessed as systolic blood pressure at 5 mg/kg, iv measured after 30 mins (reference value: 119.2 to 148.6 mmHg); format: functional
[11] = system: Rattus norvegicus; assay: Hypotensive activity in normotensive Wistar rat assessed as diastolic blood pressure at 5 mg/kg, iv measured after 30 mins (reference value: 86.5 to 119.4 mmHg); format: functional
[12] = system: Rattus norvegicus; assay: Hypotensive activity in normotensive Wistar rat assessed as systolic blood pressure at 1 mg/kg, iv measured after 30 mins (reference value: 122.4 to 156.5 mmHg); format: functional
[13] = system: Rattus norvegicus; assay: Hypotensive activity in normotensive Wistar rat assessed as diastolic blood pressure at 1 mg/kg, iv measured after 30 mins (reference value: 88.4 to 122.7 mmHg); format: functional
[14] = system: Rattus norvegicus; assay: Hypotensive activity in normotensive Wistar rat assessed as systolic blood pressure at 5 mg/kg, iv measured after 60 mins (reference value: 119.2 to 148.6 mmHg); format: functional
[15] = system: Rattus norvegicus; assay: Hypotensive activity in normotensive Wistar rat assessed as systolic blood pressure at 1 mg/kg, iv measured after 60 mins (reference value: 122.4 to 156.5 mmHg); format: functional
[16] = system: Rattus norvegicus; assay: Hypotensive activity in normotensive Wistar rat assessed as diastolic blood pressure at 1 mg/kg, iv measured after 60 mins (reference value: 88.4 to 122.7 mmHg); format: functional
[17] = system: Rattus norvegicus; assay: Cardiotoxicity in Wistar rat assessed as effect on QRS interval time at 5 mg/kg, iv measured after 1 min (reference value: 16.7 to 20.7 ms); format: toxicity, organism-based; conditions: in vivo
[18] = system: Rattus norvegicus; assay: Cardiotoxicity in Wistar rat assessed as effect on heart rate at 5 mg/kg, iv measured after 15 mins (reference value: 323 to 374.5 bpm); format: toxicity, organism-based; conditions: in vivo, 0.25 h
[19] = system: Rattus norvegicus; assay: Cardiotoxicity in Wistar rat assessed as effect on QRS interval time at 5 mg/kg, iv measured after 15 mins (reference value: 16.7 to 20.7 ms); format: toxicity, organism-based; conditions: in vivo, 0.25 h
[20] = system: Rattus norvegicus; assay: Cardiotoxicity in Wistar rat assessed as effect on QT interval time at 5 mg/kg, iv measured after 15 mins (reference value: 57.7 to 61 ms); format: toxicity, organism-based; conditions: in vivo, 0.25 h
[21] = system: Rattus norvegicus; assay: Cardiotoxicity in Wistar rat assessed as effect on QTC interval time at 5 mg/kg, iv measured after 15 mins (reference value: 136.7 to 146.2 ms); format: toxicity, organism-based; conditions: in vivo, 0.25 h
[22] = system: Rattus norvegicus; assay: Hypotensive activity in normotensive Wistar rat assessed as systolic blood pressure at 0.5 mg/kg, iv measured after 10 mins (reference value: 116 +/- 4.6 mmHg); format: functional
[23] = system: Rattus norvegicus; assay: Antiarrhythmic activity in Wistar rat assessed as inhibition of adrenaline-induced premature ventricular extrasystoles administered iv 15 mins prior to adrenaline challenge; format: functional
[24] = molecular target: Beta-2 adrenergic receptor (Cavia porcellus, UniProt Q8K4Z4); assay: Antagonist activity at adrenergic beta2 receptor in isolated guinea pig trachea assessed as inhibition of isoprenaline-induced bronchodilation incubated for 20 mins; format: functional; conditions: read-out: pA2 (converted)
Chain of Beta-2 adrenergic receptor (Q8K4Z4 whole entry): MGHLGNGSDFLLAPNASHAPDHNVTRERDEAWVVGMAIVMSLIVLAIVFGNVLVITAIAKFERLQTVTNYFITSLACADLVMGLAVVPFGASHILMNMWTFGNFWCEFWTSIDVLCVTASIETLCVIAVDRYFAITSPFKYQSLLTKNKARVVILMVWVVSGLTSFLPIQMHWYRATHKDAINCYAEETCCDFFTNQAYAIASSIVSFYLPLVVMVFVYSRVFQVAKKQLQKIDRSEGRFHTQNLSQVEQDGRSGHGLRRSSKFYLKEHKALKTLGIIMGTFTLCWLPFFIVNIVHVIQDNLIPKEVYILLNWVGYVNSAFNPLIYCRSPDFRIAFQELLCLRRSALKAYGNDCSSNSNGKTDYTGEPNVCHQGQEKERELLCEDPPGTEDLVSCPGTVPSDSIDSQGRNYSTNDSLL

[25] = system: Rattus norvegicus; assay: In vivo inhibition of beta adrenoceptor in Wistar rat assessed as reduction in isoprenaline-induced tachycardia at 5 mg/kg, iv administered as single dose 10 mins prior to isoprenaline injection; format: functional, organism-based
[26] = system: Rattus norvegicus; assay: Hypotensive activity in normotensive Wistar rat assessed as reduction in systolic blood pressure at 1 mg/kg, iv measured over 30 mins relative to control; format: functional; set-up: scale not given: the % may be the effect or the level left
[27] = system: Rattus norvegicus; assay: Hypotensive activity in normotensive Wistar rat assessed as reduction in diastolic blood pressure at 1 mg/kg, iv measured over 30 mins relative to control; format: functional; set-up: scale not given: the % may be the effect or the level left
[28] = molecular target: T1, Adrenergic receptor alpha-1 (Rattus norvegicus); assay: Displacement of [3H][…]prazosin from adrenergic alpha1 receptor in Wistar rat cortex at 10^-5 M incubated for 30 mins by microbeta liquid scintillation counting analysis
[29] = system: Rattus norvegicus; assay: Cardiotoxicity in Wistar rat assessed as effect on QTC interval time at 1 mg/kg, iv measured after 1 min (reference value: 137.7 +/- 2 ms); format: toxicity, organism-based; conditions: in vivo
[30] = system: Rattus norvegicus; assay: Cardiotoxicity in Wistar rat assessed as effect on PQ interval time at 1 mg/kg, iv measured after 15 mins (reference value: 56.8 +/- 1.8 ms); format: toxicity, organism-based; conditions: in vivo, 0.25 h
[31] = system: Blood; assay: Anti-aggregative activity in Wistar rat whole blood assessed as inhibition of collagen/adrenaline-induced aggregation preincubated for 3 mins followed by collagen induction measured for 6 mins; format: functional, tissue-based

Structure (SMILES)	Activity [2]	Activity [3]	Activity [4]	Activity [5]	Activity [6]	Activity [7]	Activity [8]	Activity [9]	Activity [10]	Activity [11]	Activity [12]	Activity [13]	Activity [14]	Activity [15]	Activity [16]	Time [17]	Activity [18]	Time [19]	Time [20]	Time [21]	further results
Cl.O=c1c2ccccc2oc2cc(OCC(O)CN3CCN(c4ccccn4)CC3)ccc12 (racemic)	81 mmHg	107.5 mmHg	138.3 mmHg	136 mmHg	107 mmHg	108.8 mmHg	131 mmHg	103.8 mmHg	108.7 mmHg	79.5 mmHg	127.2 mmHg	100.2 mmHg	102.5 mmHg	122.7 mmHg	94.2 mmHg	18.7 ms	295.3 bpm	21.3 ms	59 ms	133.9 ms	pKb [1]: 8.2
Cl.O=c1c2ccccc2oc2c(OCC(O)CN3CCN(c4ccccn4)CC3)cccc12 (racemic)	110.8 mmHg	111.7 mmHg	146.2 mmHg	146.2 mmHg	113.5 mmHg	129.8 mmHg	142.5 mmHg	133 mmHg	126.6 mmHg	99.8 mmHg	140 mmHg	110.5 mmHg	126.4 mmHg	138.7 mmHg	106.7 mmHg	18.5 ms	343 bpm	19.2 ms	60.2 ms	144 ms	pKb [1]: 7.52; Activity [22]: 114.3 mmHg; ED50 [23]: 4.82 mg/kg
COc1ccccc1OCCNCC(O)COc1cccc2c(=O)c3ccccc3oc12.Cl (racemic)	89.7 mmHg	85.4 mmHg	119.6 mmHg	114.8 mmHg	82.8 mmHg	97.7 mmHg	114.8 mmHg	84 mmHg	94.5 mmHg	77.2 mmHg	112.4 mmHg	81.6 mmHg	106.2 mmHg	106.8 mmHg	75.6 mmHg	19 ms	308.7 bpm	18.7 ms	63.3 ms	131.1 ms	pKb [1]: 8.34; Kb [24]: 18.1 nM; inhibition [25]: Active; Activity [26]: 6 - 13%; Activity [27]: 7 - 14%
COc1ccccc1CNCC(O)COc1cccc2c(=O)c3ccccc3oc12.Cl (racemic)	107.2 mmHg	–	–	–	–	133 mmHg	–	–	126 mmHg	96 mmHg	–	–	125.3 mmHg	–	–	22 ms	265 bpm	21.3 ms	66.7 ms	139.3 ms	Kb [24]: 114 nM; inhibition [25]: Active
CC(C)(C)NCC(O)COc1cccc2c(=O)c3ccccc3oc12.Cl (racemic)	–	111 mmHg	146.4 mmHg	142.6 mmHg	109.5 mmHg	–	131.6 mmHg	103.7 mmHg	–	–	128.2 mmHg	100 mmHg	–	123 mmHg	96.7 mmHg	–	–	–	–	–	Activity [28]: inactive; Kb [24]: 0.31 nM; Time [29]: 134.5 ms; Time [30]: 58 ms; ED50 [23]: 1.63 mg/kg; IC50 [31]: 82300 nM; inhibition [31]: Dose-dependent effect
COc1ccccc1CCNCC(O)COc1cccc2c(=O)c3ccccc3oc12.Cl (racemic)	108.6 mmHg	114.8 mmHg	147.8 mmHg	147 mmHg	114.2 mmHg	128.2 mmHg	141 mmHg	111.5 mmHg	126 mmHg	97.2 mmHg	135 mmHg	107.7 mmHg	117 mmHg	126.3 mmHg	101.2 mmHg	18 ms	390.5 bpm	17 ms	60 ms	148.5 ms	pKb [1]: 8.28; Kb [24]: 21.4 nM; inhibition [25]: Active; Activity [26]: 5 - 11%; ED50 [23]: 2.2 mg/kg; IC50 [31]: 44800 nM; inhibition [31]: Dose-dependent effect
